Reference: PMC6389703, “Identification of Biologically Active Ganoderma lucidum Compounds and Synthesis of Improved Derivatives That Confer Anti-cancer Activities in vitro” (Frontiers in Pharmacology, 2019)
Read-outs that look alike come from different tables or passages of the source.

Legend:
[1] = test system: MCF10A cells; assay: cells; type: cell-based
Experimental: (§1) Cell viability assays (MTT or PI staining assays) in SUM-149, SUM-190, MDA-MB-231, and MCF10A cells were performed as we previously described ([Suarez-Arroyo et al., 2016]).
(§2) For the CTG assay, 3 or 4 replicate assays were conducted for each experimental condition, and a minimum of 3 independent experiments were conducted for cellular assays. The mean luminescence of each experimental treatment group was normalized as a percentage of the mean intensity of untreated controls. EC50 values (μM) were calculated by Pipeline Pilot Software (Accelrys, Enterprise Platform, San Diego, CA, United States). EC50 values (μM) from the viability assay were calculated from dose response curve-fitting via non-linear regression by using GraphPad Prism (Version 7.0, San Diego, CA, United States). For cell viability, colony formation, cell-cycle progression, cell death, and western blot assays, the analyses were performed via one-way or two-way ANOVA with post-testing for each condition (concentration, cell cycle stage, apoptotic event, cell line) by using GraphPad Prism.

[2] = test system: SUM-149 cells; assay: Cell viability assay, SUM-149; type: cell-based, human; conditions: for EC50: Homo sapiens, read-out: EC50, SUM-149 cell viability
Experimental: Either 1 × 10^3–4.8 × 10^3 or 4 × 10^2–1.2 × 10^3 cells were seeded to each well of 96- or 384-well white polystyrene flat-bottomed plates (3610 or 8804BC, Corning) in 100 μL or 30 μL media per well, respectively. The concentrations used were experimentally determined to ensure logarithmic growth during the duration of the experiment and prevent adverse effects on cell growth by DMSO exposure. The plates were incubated at 37°C in 5% CO2 for 24 h before treatment. Stock solutions of test compounds (10 mM in DMSO) in nine 3-fold serial dilutions were dispensed via pintool (Biomek). The final concentration of DMSO was 0.3% (v/v) in each well. The plates were incubated for 72 h at 37°C in 5% CO2 and then quenched with CellTiter-Glo® reagent (50 μL/well in 96-well plate, 30 μL/well in 384-well plate) at RT. The positive controls included staurosporine (10 μM), gambogic acid (10 μM), and a toxic quinoline generated in-house. Plates were then incubated at RT for 20 min and centrifuged at 1000 rpm for 1 min. The cytotoxicity assay was performed by using the CellTiter-Glo® Luminescent Cell Viability Assay kit (G7570, Promega, Madison, WI, United States) according to the manufacturer’s instructions. Luminescence was recorded in an Envision plate reader (PerkinElmer).
as §1, §2

[3] = test system: MCF-7 cells; assay: ROS measurement (CellROX green), MCF-7; type: cell-based, human
Experimental: SUM-149 or MDA-MB-231 were plated in 96-well plates at a density of 2 × 10^4 and 1 × 10^4 cells/well, respectively, in black 96-well clear bottom tissue culture plates and incubated for 24 h at 37°C. The mRuby-Mito-7 plasmid was obtained from Addgene (#55874 from Michael Davidson). A stable clone of MCF-7 was generated by using Fugene 6 (Roche) to transfect cells (2 × 10^5) with plasmid (2.0 μg) under neomycin selection. A stable cell line was selected by using G418 (300 μg/mL) for 2 weeks, sorted by flow cytometry, and maintained under G418 thereafter. Transfected MCF-7 cells were plated at a density of 2 × 10^4 cells/well in black 96-well clear bottom tissue culture plates and incubated overnight at 37°C. To test for ROS formation and remove background, cells were replenished with fresh PBS with 2% FBS and treated with the desired compounds for 1 h at 37°C. DMSO (0.5%) was used as a negative control, while Menadione (Mena, at 10 μM) or t-Butyl hydroperoxide (TBHP) at 100 μM final concentration were used as a positive control. To evaluate the compounds’ effects on ROS formation inhibition, the free radical scavenger N-acetyl cysteine (NAC) was used. Cells were treated with or without NAC (500 μM or 100 μM) for 1 h, then CellROX® green reagent (Molecular Probes #C10444) was added to a final concentration of 5 μM, and cells were incubated for an additional 30 min at 37°C. Cells were then washed 2× with PBS, followed by fixation with 4% paraformaldehyde (v/v) for 15 min, and 2 more washes with PBS. Fluorescence intensity was measured in a Clariostar® plate reader (BMG LABTECH, Cary, NC, United States) at 535 nm.

[4] = Incubation of EP with NAC, monitored by NMR and LC-MS; type: physicochemical; conditions: NAC in DMSO, 24 h at 37°C
[5] = test system: SUM-149 cells; assay: Matrigel invasion assay (Transwell); type: cell-based, human; conditions: 72 h
Experimental: (§3) Cell migration and invasion were measured by using Corning® FluoroBlok^TM Cell Culture Inserts and performing BD BioCoat Matrigel invasion assays (BD Biosciences, San José, CA, United States) as described in [Martinez-Montemayor et al. (2011)] and [Suarez-Arroyo et al. (2016)].

[6] = test system: MDA-MB-231 cells; assay: De novo in-cell protein synthesis (click assay); type: cell-based, human; conditions: 2 h; EP 20 μM
Experimental: First, 2.5 × 10^4 cells/well were seeded in 8-well μ-slides (Ibidi®, #80826) and incubated at 37°C for 12 h. The cells were treated with vehicle, compounds Ganoderic acid A or EP, or cycloheximide (positive control) for 2 h to determine protein synthesis as nascent proteins generated using Biovision’s EZClick^TM Global Protein Synthesis Assay Kit, (#K715-100, Milpitas, CA, United States). The assay includes a robust chemical method based on an alkyne containing o-propargyl-puromycin (OP-puro) probe, which stops translation by forming covalent conjugates with nascent polypeptide chains. Truncated polypeptides are rapidly turned over by the proteasome and can be detected based on the subsequent click reaction with a fluorescent azide. The reaction was conducted according to the manufacturer’s protocol. Cells were imaged at 20× with a Nikon C2 scanning confocal microscope, and the whole image montage was quantified by using Gen5 Software and Lionheart^TM FX Automated Microscope (BioTek, Winooski, VT, United States).

[7] = test system: SUM-149 cells; assay: Cell migration assay (Boyden chamber); type: cell-based, human; conditions: 10 μM, 72 h
Experimental: as §3

[8] = test system: Sup-B15 cells; assay: Cell Titer Glo viability assay, Sup-B15; type: cell-based; conditions: Homo sapiens, 72-h treatment
Experimental: (§4) Either 1 × 10^3–4.8 × 10^3 or 4 × 10^2–1.2 × 10^3 cells were seeded to each well of 96- or 384-well white polystyrene flat-bottomed plates (3610 or 8804BC, Corning) in 100 μL or 30 μL media per well, respectively. The concentrations used were experimentally determined to ensure logarithmic growth during the duration of the experiment and prevent adverse effects on cell growth by DMSO exposure. The plates were incubated at 37°C in 5% CO2 for 24 h before treatment. Stock solutions of test compounds (10 mM in DMSO) in nine 3-fold serial dilutions were dispensed via pintool (Biomek). The final concentration of DMSO was 0.3% (v/v) in each well. […] Luminescence was recorded in an Envision plate reader (PerkinElmer).
as §2, with “For cell viability, colony formation, cell-cycle progression, cell death, and western blot assays, the analyses were performed via one-way or two-way ANOVA with post-testing for each condition (concentration, cell cycle stage, apoptotic event, cell line) by using GraphPad Prism.” left out

[9] = test system: BCR-ABL cells; assay: Cell Titer Glo viability assay, BCR-ABL; type: cell-based, murine; conditions: Mus musculus, 72-h treatment
Experimental: as §4
as §2, with “For cell viability, colony formation, cell-cycle progression, cell death, and western blot assays, the analyses were performed via one-way or two-way ANOVA with post-testing for each condition (concentration, cell cycle stage, apoptotic event, cell line) by using GraphPad Prism.” left out

[10] = test system: Uocb-1 cells; assay: Cell Titer Glo viability assay, Uocb-1; type: cell-based; conditions: Homo sapiens, UoC-B1, 72-h treatment
Experimental: as §4
as §2, with “For cell viability, colony formation, cell-cycle progression, cell death, and western blot assays, the analyses were performed via one-way or two-way ANOVA with post-testing for each condition (concentration, cell cycle stage, apoptotic event, cell line) by using GraphPad Prism.” left out

CC(C)[C@@H](C)/C=C/[C@@H](C)[C@H]1CC[C@@H]2[C@]1(C)CC[C@H]1[C@]23C=C[C@]2(C[C@@H](O)CC[C@]12C)OO3 [EP, ergosterol peroxide]
cytotoxicity in MCF10A non-cancerous mammary epithelial cells [1]: did not induce cytotoxicity | EC50 ([1]; Homo sapiens, MCF-10A, PI staining, 72-h treatment): > 100 µM | concentration at which SUM-149 cell viability is significantly reduced ([2]; 72 h): 8 µM | EC50 ([2]; SUM149, 24 h): 34 µM | EC50 ([2]; SUM149, 72 h): 20 µM | ROS increase (fold) ([3]; GA-01, ergosterol, 5,6-dehydroergosterol 50 µM, EP 20 µM): at least a twofold | ROS formation reduction when co-treated with NAC ([3]; NAC 100 µM, TBHP 100 µM): 9–25% | reaction of the endoperoxide motif with NAC [4]: no observable olefin migration or opening of the endoperoxide was detected | invading cells ([5]; 10 μM): significant reduction | decrease in invasion ([5]; 15 μM): 43% | de novo protein synthesis inhibition [6]: do not inhibit | cancer cell migration [7]: decreases cancer cell migration | EC50 [8]: 9.86 µM | EC50 [9]: 6.9 µM | EC50 [10]: 13.6 µM
